The supplement of paper PMC6723410

Each compound was assayed on GUMC-403 (assay: viability at highest tested concentration (max response) relative to DMSO (% of DMSO control); higher = less cytotoxic). Details: library / dose series: MIPE library, 11-point 1:3 dilution; top concentration 27.2 µM; 48 h.
Method in brief: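 Conditionally reprogrammed GUMC-403 papilloma cells from a patient were plated at 700/well in 5 μL F + Y medium in 1536-well plates and left overnight at 37 °C. A pin tool then added 23 nL of library compounds as an 11-point 1:3 series, for 48 h. CellTiter-Glo luminescence was read on a ViewLux and scaled with vehicle wells set to 100% and empty wells to 0%. Each value gives viability at the highest tested concentration relative to vehicle control.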

Compound `CN1[C@@H]2CC(OC(=O)[C@@H](CO)c3ccccc3)C[C@H]1[C@H]1O[C@H]12` (stereo partly drawn) has a viability of 131.

Same assay, conditions: library / dose series: MIPE library, 11-point 1:3 dilution; top concentration 46.1 µM; 48 h

First: COC(=O)C1=C(C)NC(C)=C(C(=O)OCCN2CCN(C(c3ccccc3)c3ccccc3)CC2)C1c1cccc([N+](=O)[O-])c1.Cl.Cl (stereo not drawn)
Second: CC(=O)O[C@H]1C(=O)[C@]2(C)[C@@H](O)C[C@H]3OC[C@@]3(OC(C)=O)C2[C@H](OC(=O)C4=CC=CC=C4)[C@]5(O)C[C@H](OC(=O)[C@H](O)[C@@H](NC(=O)C6=CC=CC=C6)C7=CC=CC=C7)\C(=C1/C5(C)C)C (stereo partly drawn)
The viability of the first is lower: 86.5 for the first, 97.8 for the second.

Going from `CN(CCOc1ccc(NS(C)(=O)=O)cc1)CCc1ccc(NS(C)(=O)=O)cc1` to `CCCCc1oc2ccc(NS(C)(=O)=O)cc2c1C(=O)c1ccc(OCCCN(CCCC)CCCC)cc1`, the viability falls from 127 to 126.

Going from `CCC[S+]([O-])c1ccc2[nH]c(NC(=O)OC)nc2c1` (stereo not drawn) to `CCCCc1nc2cc(/C=C/C(=O)NO)ccc2n1CCN(CC)CC`, the viability falls from 92.2 to 67.2.

Compared with `CN(C)CCOc1ccc(/C(=C(/CCCl)c2ccccc2)c2ccccc2)cc1`, `COc1ccc([S+](=O)([O-])Nc2cc(-c3c(O)ccc4ccccc34)c(O)c3ccccc23)cc1` is higher in viability: 104 for the first, 117 for the second.

First: C1COC(NC(C2CC2)C2CC2)=N1
Second: COc1ccc(C2(C#N)CCC(C(=O)O)CC2)cc1OC1CCCC1 (stereo not drawn)
The viability of the first is lower: 91.2 for the first, 123 for the second.

Compared with `C/C=C/C[C@@H](C)C(=O)[C@H]1C(=O)N[C@@H](C(C)C)C(=O)N(C)CC(=O)N(C)[C@@H](CC(C)C)C(=O)N[C@@H](C(C)C)C(=O)N(C)[C@@H](CC(C)C)C(=O)N[C@@H](C)C(=O)N[C@H](C)C(=O)N(C)[C@@H](CC(C)C)C(=O)N(C)[C@@H](CC(C)C)C(=O)N(C)[C@@H](C(C)C)C(=O)N1C`, `CC[C@@H]1/C=C(\C)C[C@H](C)C[C@H](OC)[C@H]2O[C@@](O)(C(=O)C(=O)N3CCCC[C@H]3C(=O)O[C@H](/C(C)=C/[C@@H]3CC[C@H](Cl)[C@H](OC)C3)[C@H](C)[C@@H](O)CC1=O)[C@H](C)C[C@@H]2OC` is lower in viability: 90.6 for the first, 63.6 for the second.

First: COC[C@H]1OC(=O)C2=COC3=C2[C@@]1(C)\C4=C(C5CCC(=O)[C@@]5(C)C[C@H]4OC(C)=O)/C3=O (stereo partly drawn)
Second: C=C(C)[C@H]1Cc2c(ccc3c2O[C@@H]2COc4cc(OC)c(OC)cc4[C@@H]2C3=O)O1
The viability of the first is lower: 88.9 for the first, 112 for the second.

First: CCc1c(C(=O)C(N)=O)c2c(OCC(=O)O)cccc2n1Cc1ccccc1
Second: CCCc1nc(C(C)(C)O)c(C(=O)O)n1Cc1ccc(-c2ccccc2-c2nn[nH]n2)cc1
The viability of the first is lower: 103 for the first, 107 for the second.

Compared with `CC1(C)CC(O)CC(C)(C)N1[O]`, `CN1[C@@H]2CC(O)C[C@H]1[C@@H]1O[C@@H]12` (stereo partly drawn) is lower in viability: 121 for the first, 92.4 for the second.

First: C\C1=C\C(=O)C2=C(C=CC=C2)C1=O
Second: Cc1ccnc2c1NC(=O)c1cccnc1N2C1CC1
The viability of the first is lower: 109 for the first, 138 for the second.

First: CCCCCCOC(=O)/N=C(/N)c1ccc(NCc2nc3cc(C(=O)N(CCC(=O)OCC)c4ccccn4)ccc3n2C)cc1
Second: COC1=CC2=NC=CC(=C2C=C1)OC3=CN=C(NC(=O)C/4=C(C)/N(CC(C)(C)O)N(C4=O)C5=CC=CC=C5)C=C3
The viability of the first is higher: 115 for the first, 84.6 for the second.

Compared with `COc1c(C)c2c(c(O)c1C/C=C(\C)CCC(=O)O)C(=O)OC2`, `Cc1cn2cc(C(=O)N(C)CCO)cc(N[C@@H]3CCOc4cccc(C)c43)c2n1` is higher in viability: 106 for the first, 144 for the second.

Compared with `Cn1c(Nc2ccc(C(F)(F)F)cc2)nc2cc(Oc3ccnc(-c4nc(C(F)(F)F)c[nH]4)c3)ccc21`, `CNC(=O)c1cc(Oc2ccc(NC(=O)Nc3ccc(Cl)c(C(F)(F)F)c3)cc2)ccn1` is lower in viability: 92.4 for the first, 87 for the second.

Compared with `CC(C)C[C@H](NC(=O)c1cc2ccccc2s1)C(=O)N1CCN(C(=O)[C@H](CO)N[S+](=O)([O-])c2ccc(Cl)cc2Cl)CC1`, `CCC(=O)N1CCN(CC1)C2=C(C=C(C=C2)N3C(=O)\C=C/C4=C3C5=CC(=CC=C5N=C4)C6=CN=C7C=CC=CC7=C6)C(F)(F)F` is lower in viability: 109 for the first, 73.8 for the second.

Compared with `O=C(Oc1ccc([N+](=O)[O-])cc1)N1CCC(C(O)(c2ccc3c(c2)OCO3)c2ccc3c(c2)OCO3)CC1`, `COc1cc([C@@H]2c3cc4c(cc3[C@@H](O)C3COC(=O)C32)OCO4)cc(OC)c1O` (stereo partly drawn) is higher in viability: 105 for the first, 117 for the second.

First: CCNc1cc(NC2CCC(O)CC2)nc(Nc2ccc3c(ccn3Cc3ccccc3)c2)n1 (stereo not drawn)
Second: c1ccc2c(Oc3nc(Nc4ccc(N5CCOCC5)cc4)c4ncn(C5CCCCC5)c4n3)cccc2c1
The viability of the first is lower: 99.8 for the first, 124 for the second.

Compared with `O=C(C1CCCCC1)N1CC(=O)N2CCc3ccccc3C2C1` (stereo not drawn), `CC(/C=C1\SC(=S)N(CC(=O)O)C1=O)=C\c1ccccc1` is higher in viability: 109 for the first, 132 for the second.

First: CCOc1ccccc1N/N=C1/C(=O)N(c2nc(-c3ccccc3)cs2)N=C1C
Second: OC[C@H](Cc1ccccc1)Nc1nc(Oc2ccc3c(c2)CCC3)nc2c1ncn2Cc1ccc(-c2ccccc2)cc1
The viability of the first is higher: 115 for the first, 101 for the second.

Compared with `Cc1ccc(C(=O)Nc2cccc(C(F)(F)F)c2)cc1Nc1nc(-c2cccnc2)nc2c1cnn2C`, `Cc1cc(NC(=O)Nc2ccc(N(C)C)cc2)c2cc(F)cc(F)c2n1` is higher in viability: 87.4 for the first, 124 for the second.

Compared with `CNC1[C@@H](O)C(O[C@@H]2C(O)C(O[C@H]3O[C@H]([C@@H](C)NC)CC[C@H]3N)[C@@H](N)C[C@H]2N)OC[C@]1(C)O` (stereo partly drawn), `CN[C@@H]1[C@@H](O)[C@@H](O[C@@H]2[C@@H](O)[C@H](O[C@H]3O[C@H](CN)[C@@H](O)[C@H](O)[C@H]3O)[C@@H](N)C[C@H]2NC(=O)[C@@H](O)CN)OC[C@]1(C)O` is lower in viability: 101 for the first, 96.8 for the second.

First: COc1cnc(N[S+](=O)([O-])c2ccc(N)cc2)nc1
Second: COc1cc2ncnc(Nc3cccc(Cl)c3)c2cc1OC
The viability of the first is higher: 115 for the first, 98.8 for the second.

Going from `C=CCc1ccc(O)c(-c2ccc(O)c(CC=C)c2)c1` to `CCN(CC)C(=O)C1=CC=C(C=C1)C/2=C/C3(CCNCC3)OC4=CC=CC(=C24)O`, the viability rises from 80.6 to 125.

Going from `CCn1c(-c2nonc2N)nc2c(C#CC(C)(C)O)ncc(OC[C@H]3CCCNC3)c21` to `Cc1cnc(Nc2ccc(CN3CCOCC3)cc2)nc1Nc1cccc([S+](=O)([O-])NC(C)(C)C)c1`, the viability falls from 100 to 31.1.

First: Nc1ccc(C(=O)c2cc3c(ccc4ccccc43)[nH]2)cc1
Second: ClC1=CC=C(CCCOC/2=N/NC(=O)C(=C2NCC3=CN=CC=C3)/Br)C=C1
The viability of the first is higher: 109 for the first, 83.2 for the second.

First: CCOC(=O)C/1=C(C)/NC(=S)NC1C2=CC=CC(=C2)O (stereo not drawn)
Second: CNc1nc(Nc2ccc(C(=O)N3CCOCC3)cc2OC)ncc1Cl
The viability of the first is higher: 118 for the first, 108 for the second.

Going from `O=C1N\C=N/C2=C1C=N[NH]2` to `CC(C)(C)Cn1c(N)nc2ccc(-c3[nH]c(C(C)(C)C)nc3-c3ccc(F)cc3)nc21`, the viability falls from 106 to 76.7.

First: CC\1=C/C=C\C=[N]1[Pt](N)(Cl)Cl
Second: C[N+](C)([O-])CCNc1ccc(NCC[N+](C)(C)[O-])c2c1C(=O)c1c(O)ccc(O)c1C2=O
The viability of the first is higher: 136 for the first, 104 for the second.

First: NCCCC(O)(P(=O)(O)O)P(=O)(O)O.O.O.O.[Na+]
Second: C[C@]12CCC(=O)C=C1CC[C@@H]1[C@@H]2[C@@H](O)C[C@@]2(C)[C@H]1CC[C@]2(O)C(=O)CO
The viability of the first is lower: 111 for the first, 135 for the second.

Same assay, conditions: library / dose series: MIPE library, 11-point 1:3 dilution; top concentration 92.2 µM; 48 h

`CC(=O)Oc1ccccc1C(=O)Nc1ncc([N+](=O)[O-])s1` gave a viability of 82.2.
